The term EC50 denotes the concentration at which the effect is half-maximal. The low end stands for a more potent agent, the high end for a less potent agent. In general, Kd refers to the equilibrium constant for the complex coming apart. Lower therefore signals higher affinity.

For experiment [1], the species on record is Cavia porcellus. The experiment in a line: Concentration that elicits 50% of its own maximum contractile response, in guinea pig ileum. The format is functional.
For experiment [2], the target named is Muscarinic acetylcholine receptor. The experiment is described as follows: Equilibrium dissociation constant muscarinic receptor complex, measured in guinea pig ileum. The format is functional, tissue-based, Cavia porcellus.
For experiment [3], the species on record is Cavia porcellus. The experiment in a line: Efficacy relative to that of carbachol, measured in guinea pig ileum. Format: functional.
Experiment [4] is filed under the species Cavia porcellus. The experiment is described as follows: Maximum contractile response relative to that elicited by carbachol, in guinea pig ileum. The format is functional.
The species named for experiment [5] is Mus musculus. The experiment is described as follows: Dose required to double the dose of oxotremorine inducing a predetermined (grade 2) tremor intensity in mice. Format: functional.
Experiment [6] is filed under the species Cavia porcellus. The experiment in a line: Equipotent molar ratio relative to that of carbachol, which equals 1, in guinea pig ileum. Format: functional.
Experiment [7] is filed under the species Mus musculus. The experiment in a line: Dose required to double the dose of oxotremorine inducing a predetermined (grade 2) tremor intensity in mice; g=Agonist. The format is functional, organism-based. The note with it: filed as agonist.

Bounds are passed on as bounds.

In experiment [1], `O=C1CCC(=O)N1CC#CCN1CCCC1` gave an EC50 of 1 µM. In experiment [2], this molecule registered a Kd of 5 µM. The same molecule came in with a Relative efficacy in experiment [3] of 0.027. In experiment [4], this molecule gave an Emax of 0.98. This molecule showed a Tremorolytic dose in experiment [5] of 23 µM/kg.

As to `CC(=O)N(C(C)=O)C(C)C#CCN1CCCC1` (configuration not stated), in experiment [2], the Kd is 0.28 µM. Besides, the Emax in experiment [4] was found to be 0. This molecule gave a Tremorolytic dose in experiment [5] of 3.2 µM/kg.

In turn, `CC(=O)N(C(C)=O)C(C)C#CCN(C)C` (configuration not stated) displayed an EC50 in experiment [1] of 5.5 µM. The molecule further showed a dissociation constant Kd in experiment [2] of 21.6 µM. The molecule also yielded a Relative efficacy in experiment [3] of 0.03. Also, the EPMR in experiment [6] is reported as 57.9. The molecule further gave an Emax in experiment [4] of 0.99. In experiment [5], this molecule had a Tremorolytic dose of 109 µM/kg.

In experiment [2], `CC(=O)N(C(C)C#CCN1CCCC1)S(C)(=O)=O` (configuration not stated) displayed an equilibrium dissociation constant (Kd) of 3.1 µM. The Tremorolytic dose in experiment [5] is 99.7 µM/kg.

For the molecule `CC(=O)N(CC#CC[N+](C)(C)C)C(C)=O`, in experiment [1], a half-maximal response (EC50) required 2 µM. Also, the Kd in experiment [2] was 8.2 µM. This molecule also yielded a Relative efficacy in experiment [3] of 0.034. Besides, the EPMR in experiment [6] was found to be 19.3. In addition, in experiment [4], the Emax was 1.

Turning to `CC(C#CCN1CCCC1)N(C)C(=O)C(F)(F)F` (configuration not stated), the Kd in experiment [2] was found to be 0.57 µM. In experiment [4], the Emax worked out at 0. For the same molecule, the Tremorolytic dose in experiment [5] worked out at 21.4 µM/kg.

`C[N+](C)(C)CCOC(N)=O.[Cl-]` [CARBACHOL] displayed a half-maximal effective concentration (EC50) in experiment [1] of 0.11 µM. The EPMR in experiment [6] is 1. This molecule registered an Emax in experiment [4] of 1.

In turn, `CC(C#CCN(C)C)N(C)C(=O)C(F)(F)F` (configuration not stated) came in with a Kd in experiment [2] of 95.4 µM. In experiment [4], this molecule came in with an Emax of under 0.1. This molecule yielded a Tremorolytic dose in experiment [5] of over 200 µM/kg.

In experiment [2], `CN(CC#CCN1CCCC1)S(C)(=O)=O` displayed a Kd of 68 µM. This molecule also had a Tremorolytic dose in experiment [5] of 174 µM/kg.

`CC(=O)N(CC#CCN(C)C)C(C)=O`: the EC50 in experiment [1] is 38.8 µM. The Kd in experiment [2] is 65.6 µM. In experiment [3], this molecule gave a Relative efficacy of 0.013. Besides, in experiment [6], the EPMR amounted to 320. In experiment [4], this molecule returned an Emax of 0.84. This molecule gave a Tremorolytic dose in experiment [5] of over 200 µM/kg.

Take `CC(C#CC[N+](C)(C)C)N(C)C(=O)C(F)(F)F` (configuration not stated): in experiment [1], the half-maximal effective concentration (EC50) turned out to be 27.1 µM. Moreover, in experiment [2], the Kd was 91.9 µM. In addition, the Relative efficacy in experiment [3] is given as 0.026. In experiment [6], the EPMR came to 214. The Emax in experiment [4] is listed as 0.89.

In turn, `CC(C#CCN1CCCC1)N(C)S(C)(=O)=O` (configuration not stated) yielded a Kd in experiment [2] of 13 µM. In experiment [5], this molecule had a Tremorolytic dose of 82 µM/kg.

In experiment [2], `CC(=O)N(CC#CCN1CCCC1)S(C)(=O)=O` yielded a Kd of 17.9 µM. For the same molecule, the Tremorolytic dose in experiment [5] was over 200 µM/kg.

The molecule `CC(=O)N(C)C(C)C#CCN1CCCC1` (configuration not stated) had an EC50 in experiment [1] of 0.19 µM. Further, the Kd in experiment [2] was found to be 0.24 µM. In experiment [3], this molecule registered a Relative efficacy of 0.013. The molecule further returned an Emax in experiment [4] of 0.83. The molecule further displayed a Tremorolytic dose in experiment [5] of 0.6 µM/kg.

Consider `CN(CC#CCN1CCCC1)C(=O)C(F)(F)F`, for which, in experiment [1], the concentration giving a half-maximal response (EC50) is 16.9 µM. Further, in experiment [2], the Kd amounted to 15.6 µM. In experiment [3], this molecule registered a Relative efficacy of 0.003. For the same molecule, the EPMR in experiment [6] stood at 145. Further, the Emax in experiment [4] is reported as 0.16. The molecule further had a Tremorolytic dose in experiment [5] of 150 µM/kg.

Turning to `CC(=O)N(C(C)=O)C(C)C#CC[N+](C)(C)C` (configuration not stated), the EC50 in experiment [1] worked out at 1.2 µM. This molecule returned an equilibrium dissociation constant (Kd) in experiment [2] of 8.6 µM. In addition, in experiment [3], the Relative efficacy was 0.055. Besides, the EPMR in experiment [6] was found to be 10.7. Besides, the Emax in experiment [4] amounted to 1.01.

Take `CN(C)CC#CCN1C(=O)CCC1=O`: the EC50 in experiment [1] is 2.5 µM. In addition, the Kd in experiment [2] is 208 µM. Also, in experiment [3], the Relative efficacy is reported as 0.35. In experiment [4], this molecule returned an Emax of 1.01. For the same molecule, the Tremorolytic dose result in experiment [7] is “Agonist”.

`CCN(CC)CC#CCN(C(C)=O)C(C)=O` returned a Kd in experiment [2] of 7.2 µM. The Emax in experiment [4] is given as 0. The molecule further gave a Tremorolytic dose in experiment [5] of 107 µM/kg.

`CC(=O)N(CC#CCN1CCCC1)C(C)=O` yielded a Kd in experiment [2] of 0.44 µM. In experiment [4], this molecule came in with an Emax of 0. In experiment [5], this molecule yielded a Tremorolytic dose of 2.9 µM/kg.

In the case of `CC(C#CCN1CCCC1)N1C(=O)CCC1=O` (configuration not stated), the Kd in experiment [2] was 0.15 µM. The molecule further displayed a Tremorolytic dose in experiment [5] of 1.2 µM/kg.

In experiment [2], `CCN(CC)CC#CC(C)N(C(C)=O)C(C)=O` (configuration not stated) returned a Kd of 1.6 µM. Besides, the Emax in experiment [4] is reported as 0. The molecule also registered a Tremorolytic dose in experiment [5] of 39 µM/kg.

In the case of `CC(C#CCN1CCCC1)N(S(C)(=O)=O)S(C)(=O)=O` (configuration not stated), in experiment [2], the Kd came out at 5.4 µM. Also, the Tremorolytic dose in experiment [5] amounted to 157 µM/kg.

On to `CS(=O)(=O)N(CC#CCN1CCCC1)S(C)(=O)=O`, for which the Kd in experiment [2] stood at 15.9 µM. Besides, the Tremorolytic dose in experiment [5] was over 200 µM/kg.

As to `CC(=O)N(C)CC#CCN1CCCC1`, the EC50 in experiment [1] was determined as 0.069 µM. Further, in experiment [2], the dissociation constant Kd is 2.2 µM. The molecule further had a Relative efficacy in experiment [3] of 0.15. The Emax in experiment [4] is on record as 1.01.

The values are drawn from ChEMBL document CHEMBL1124056, “Derivatives of the muscarinic agent N-methyl-N-(1-methyl-4-pyrrolidino-2-butynyl)acetamide” (J Med Chem, 1988).
